Test results published in ChEMBL document CHEMBL2424624, “Syntheses and antitumor activities of N'1,N'3-dialkyl-N'1,N'3-di-(alkylcarbonothioyl) malonohydrazide: the discovery of elesclomol” (Bioorg Med Chem Lett, 2013).
Blank lines part the entries; values can stand above or below the compound they belong to.

Assays:
Type in all cases: ADME, organism-based
[1] = AUC in Sprague-Dawley rat at 25 mg/kg, iv; design: dose 25 mg/kg, route intravenous; conditions: plasma
[2] = Volume of distribution at steady state in nu/nu mouse at 25 mg/kg, iv; design: dose 25 mg/kg, route intravenous; conditions: in vivo, read-out: Vdss
[3] = AUC in rat at 5 mg/kg; design: dose 5 mg/kg; conditions: plasma
[4] = Cmax in rat at 5 mg/kg; design: dose 5 mg/kg; conditions: in vivo
[5] = Cmax in rat at 25 mg/kg in presence of taxol; design: dose 25 mg/kg; conditions: in vivo
[6] = AUC in nu/nu mouse at 25 mg/kg in presence of taxol; design: dose 25 mg/kg; conditions: plasma
[7] = Cmax in Sprague-Dawley rat at 25 mg/kg, iv; design: dose 25 mg/kg, route intravenous; conditions: in vivo
[8] = Clearance in Sprague-Dawley rat at 25 mg/kg, iv; design: dose 25 mg/kg, route intravenous; conditions: in vivo
[9] = Volume of distribution at steady state in Sprague-Dawley rat at 25 mg/kg, iv; design: dose 25 mg/kg, route intravenous; conditions: in vivo, read-out: Vdss
[10] = Apparent terminal half life in nu/nu mouse at 25 mg/kg, iv; design: dose 25 mg/kg, route intravenous; conditions: in vivo, read-out: betat1/2(app) (converted)
[11] = Half life in rat at 25 mg/kg in presence of taxol; design: dose 25 mg/kg; conditions: in vivo
[12] = Apparent terminal half life in Sprague-Dawley rat at 25 mg/kg, iv; design: dose 25 mg/kg, route intravenous; conditions: in vivo, read-out: betat1/2(app) (converted)
[13] = Clearance in nu/nu mouse at 25 mg/kg, iv; design: dose 25 mg/kg, route intravenous; conditions: in vivo
[14] = Cmax in nu/nu mouse at 25 mg/kg, iv; design: dose 25 mg/kg, route intravenous; conditions: in vivo
[15] = Half life in rat at 5 mg/kg; design: dose 5 mg/kg; conditions: in vivo
[16] = Half life in nu/nu mouse at 25 mg/kg in presence of taxol; design: dose 25 mg/kg; conditions: in vivo
[17] = Cmax in nu/nu mouse at 25 mg/kg in presence of taxol; design: dose 25 mg/kg; conditions: in vivo
[18] = AUC in rat at 25 mg/kg in presence of taxol; design: dose 25 mg/kg; conditions: plasma
[19] = AUC in nu/nu mouse at 25 mg/kg, iv; design: dose 25 mg/kg, route intravenous; conditions: plasma
[20] = AUC in nu/nu mouse at 5 mg/kg in presence of STA-4783; design: dose 5 mg/kg; conditions: plasma
[21] = Cmax in rat at 5 mg/kg in presence of STA-4783; design: dose 5 mg/kg; conditions: in vivo
[22] = Cmax in nu/nu mouse at 5 mg/kg in presence of STA-4783; design: dose 5 mg/kg; conditions: in vivo
[23] = Half life in nu/nu mouse at 5 mg/kg in presence of STA-4783; design: dose 5 mg/kg; conditions: in vivo
[24] = AUC in rat at 5 mg/kg in presence of STA-4783; design: dose 5 mg/kg; conditions: plasma

AUC [1]: 32.7 µM·h
Vd [2]: 0.51 L/kg
AUC [3]: 10.3 µM·h
Cmax [4]: 21.7 µM
Cmax [5]: 63.3 µM
AUC [6]: 11.9 µM·h
Cmax [7]: 56.3 µM
clearance [8]: 13.2 mL/min/kg
Vd [9]: 0.1 L/kg
half-life [10]: 1.9 h
half-life [11]: 1.7 h
half-life [12]: 1.94 h
clearance [13]: 29 mL/min/kg
Cmax [14]: 85.2 µM
half-life [15]: 3.1 h
half-life [16]: 1.2 h
Cmax [17]: 37.8 µM
AUC [18]: 36.8 µM·h
AUC [19]: 35.9 µM·h
SMILES: CN(NC(=O)CC(=O)NN(C)C(=S)c1ccccc1)C(=S)c1ccccc1 [ELESCLOMOL]

AUC [20]: 2.95 µM·h
Cmax [21]: 20.4 µM
Cmax [22]: 10.6 µM
half-life [23]: 2.26 h
AUC [24]: 11.9 µM·h
SMILES: CC(=O)O[C@H]1C(=O)[C@@]2(C)[C@H]([C@H](OC(=O)c3ccccc3)[C@]3(O)C[C@H](OC(=O)[C@H](O)[C@@H](NC(=O)c4ccccc4)c4ccccc4)C(C)=C1C3(C)C)[C@]1(OC(C)=O)CO[C@@H]1C[C@@H]2O [PACLITAXEL]
